Series [1] has as its system Pancreatic beta cell. The experiment in a line: Induction of beta cells proliferation in 6 days post fertilize Tg(-1.2ins:H2BmCherry)Tg(ins:mAG-zGeminin(1/100)) zebra fish larvae assessed as increase in beta cells at 50 uM after 24 hrs by confocal microscopic method relative to control. Format: functional. Conditions: Danio rerio.
The nature of series [2]: Induction of beta cells proliferation in 6 days post fertilize Tg(-1.2ins:H2BmCherry)Tg(ins:mAG-zGeminin(1/100)) zebra fish larvae assessed as number of replicated beta cells at 10 uM after 24 hrs by confocal microscopic method (reference value: 1.7 +/- 0.5). Format: functional, Danio rerio, Pancreatic beta cell.
A short description of series [3]: Induction of beta cells proliferation in 5 days post fertilize Tg(-1.2ins:H2BmCherry) zebra fish larvae assessed as beta cell number at 10 uM after 24 hrs by confocal microscopic method (reference value: 35 +/- 1). Format: functional, Danio rerio, Pancreatic beta cell.
Series [4] has as its system Pancreatic beta cell. As to the kind of experiment: Induction of beta cells proliferation in 6 days post fertilize Tg(-1.2ins:H2BmCherry)Tg(ins:mAG-zGeminin(1/100)) zebra fish larvae assessed as increase in total beta cells after 24 hrs by confocal microscopic method. Format: functional. Conditions: Danio rerio, dose microM 5-25, time 24.0 hrs.
For series [5], the system named is INS1(832/13). As to the kind of experiment: Induction of cell cycle progression at G1/S transition in rat INS-1 832/13 cells assessed as increase in Cyclin E mRNA expression at 10 uM after 24 hs by qRT-PCR analysis. It counts as functional, cell-based. Conditions: time 24.0 hrs. For orientation: Quantitative PCR measures a nucleic acid by following its amplification.

Series [6] in a line: Toxicity in 6 days post fertilize Tg(-1.2ins:H2BmCherry)Tg(ins:mAG-zGeminin(1/100)) zebra fish beta cells at 50 uM after 24 hrs by confocal microscopic method. It counts as tissue-based, Danio rerio. Conditions: zebrafish, pancreatic beta cell.
The subject of series [7] is INS1(832/13). As to the kind of experiment: Induction of cell cycle progression at G1/S transition in rat INS-1 832/13 cells assessed as decrease in p21 mRNA expression at 10 uM after 24 hs by qRT-PCR analysis. It counts as functional, cell-based. Conditions: time 24.0 hrs.
In series [8] the test system is INS1(832/13). The experiment in a line: Induction of cell cycle progression at G1/S transition in rat INS-1 832/13 cells assessed as decrease in p27 mRNA expression at 10 uM after 24 hs by qRT-PCR analysis. Format: functional, cell-based. Conditions: time 24.0 hrs.
Series [9] has as its system INS1(832/13). As to the kind of experiment: Induction of cell proliferation in rat INS-1 832/13 cells after 24 hrs by CCK8 assay. Format: functional, cell-based. On the technique in general: Tetrazolium dyes change colour on reduction, which living cells bring about.
For series [10], the system named is Pancreatic beta cell. The experiment in a line: Induction of beta cells proliferation in 6 days post fertilize Tg(-1.2ins:H2BmCherry)Tg(ins:mAG-zGeminin(1/100)) zebra fish larvae assessed as increase in beta cell proliferation after 24 hrs by confocal microscopic method. Format: functional. Conditions: Danio rerio, dose microM 5-25, time 24.0 hrs.
Series [11] relates to INS1(832/13). As to the kind of experiment: Induction of cell cycle progression at G1/S transition in rat INS-1 832/13 cells assessed as increase in Cdk 4 mRNA expression at 10 uM after 24 hs by qRT-PCR analysis. Conditions: time 24.0 hrs. Format: functional, cell-based.
For series [12], the system named is INS1(832/13). As to the kind of experiment: Induction of cell cycle progression at G1/S transition in rat INS-1 832/13 cells assessed as increase in Cdk 2 mRNA expression at 10 uM after 24 hs by qRT-PCR analysis. Format: functional, cell-based. Conditions: time 24.0 hrs.
Series [13] concerns Pancreatic beta cell. As to the kind of experiment: Induction of beta cells proliferation in 6 days post fertilize Tg(-1.2ins:H2BmCherry)/TgBAC(neurod1:eGFP) zebra fish larvae at 10 uM after 24 hrs by confocal microscopic method. Conditions: Danio rerio. It counts as functional, tissue-based.
Series [14] has as its system Pancreatic beta cell. The experiment in a line: Induction of beta cells proliferation in 6 days post fertilize Tg(-1.2ins:H2BmCherry)/Tg(gcga:eGFP) zebra fish larvae at 10 uM after 24 hrs by confocal microscopic method. Format: functional. Conditions: Danio rerio.
A short description of series [15]: Induction of beta cells proliferation in 6 days post fertilize Tg(-1.2ins:H2BmCherry)Tg(ins:mAG-zGeminin(1/100)) zebra fish larvae assessed as increase in beta cell proliferation at 25 uM after 24 hrs by confocal microscopic method relative to control. Format: functional, Danio rerio, Pancreatic beta cell.
Series [16] relates to Pancreatic beta cell. The experiment in a line: Induction of beta cells proliferation in 6 days post fertilize Tg(-1.2ins:H2BmCherry)Tg(ins:mAG-zGeminin(1/100)) zebra fish larvae assessed as increase in beta cell proliferation at 25 to 50 uM after 24 hrs by confocal microscopic method. Format: functional. Conditions: Danio rerio, dose microM 25-50, time 24.0 hrs.
The subject of series [17] is Pancreatic beta cell. As to the kind of experiment: Induction of beta cells proliferation in 6 days post fertilize Tg(-1.2ins:H2BmCherry)Tg(ins:mAG-zGeminin(1/100)) zebra fish larvae assessed as increase in total beta cells at 25 to 50 uM after 24 hrs by confocal microscopic method. Conditions: Danio rerio, dose microM 25-50, time 24.0 hrs. Format: functional, cell-based.

Series [18] relates to Pancreatic beta cell. The experiment in a line: Induction of beta cells proliferation in 6 days post fertilize Tg(-1.2ins:H2BmCherry)Tg(ins:mAG-zGeminin(1/100)) zebra fish larvae assessed as increase in beta cell proliferation at 5 to 10 uM after 24 hrs by confocal microscopic method. Format: functional. Conditions: Danio rerio, dose microM 5-10, time 24.0 hrs.
Series [19] concerns Pancreatic beta cell. As to the kind of experiment: Induction of beta cells proliferation in 6 days post fertilize Tg(-1.2ins:H2BmCherry)Tg(ins:mAG-zGeminin(1/100)) zebra fish larvae assessed as increase in total beta cells at 5 to 10 uM after 24 hrs by confocal microscopic method. Format: functional. Conditions: Danio rerio, dose microM 5-10, time 24.0 hrs.

Active and inactive are the calls of the source. The calls are words filed in the database; no cut-off is given here.

As for `C=CC(C)(C)c1c(C)c(CC=C(C)C)c(O)c2c(=O)c3c(CO)cccc3oc12`, the outcome with Pancreatic beta cell [1] was inactive. The Activity is 3.6 in series [2]; 40 in series [3]; “Dose-dependent effect” with Pancreatic beta cell [4]; “Toxic” in series [6]; “Dose-dependent effect” with Pancreatic beta cell [10]; 10% in [15]. Further, the result in the series with INS1(832/13) [5], in the series on INS1(832/13) [7], in the series with INS1(832/13) [8], in the series with INS1(832/13) [9], in the series with INS1(832/13) [11] and in the series on INS1(832/13) [12] was Active. For the same compound, the outcome in the series with Pancreatic beta cell [13] and with Pancreatic beta cell [14] was Active.

Take `CC(C)=CCc1c(C)cc2oc3cccc(C4O[C@H](C)[C@@H](C)O4)c3c(=O)c2c1O`: in series [3], the Activity is 39.

For `C[C@]12C=CC(=O)C=C1CC[C@@H]1[C@@H]2[C@@H](O)C[C@@]2(C)[C@H]1CC[C@]2(O)C(=O)CO` [PREDNISOLONE], the Activity in series [3] turned out to be 40.

`C=CC(C)(C)c1cc(CC=C(C)C)c(O)c2c(=O)c3c(CO)cc(C)cc3oc12`: the Activity was 4.3 in series [2]; 40 in series [3]; “Toxic” in series [6]; “Dose-dependent effect” with Pancreatic beta cell [18]; “Dose-dependent effect” in the series with Pancreatic beta cell [19]. The outcome in the series on Pancreatic beta cell [16] and with Pancreatic beta cell [17] was inactive. In addition, the outcome in the series on INS1(832/13) [5], with INS1(832/13) [7], in the series on INS1(832/13) [8], in the series with INS1(832/13) [9], in the series on INS1(832/13) [11] and in the series with INS1(832/13) [12] was Active. Moreover, the result with Pancreatic beta cell [13] and with Pancreatic beta cell [14] was Active.

These data come from ChEMBL document CHEMBL4699515, “Staprexanthones, Xanthone-Type Stimulators of Pancreatic β-Cell Proliferation from a Mangrove Endophytic Fungus” (J Nat Prod, 2020).
